# Test results: patent publication US20210269483A1, “PEPTIDE COMPOUNDS” (ULTUPHARMA AB, priority 2018, published 2021)
# Like-named read-outs stand apart in the source and are kept apart here. Starred links: 1 amine or outer side, 2 acyl side, 3 side chain; linkers in the order of their positions; H or OH if unused. Positions of bridges follow the written chain, without caps; N, C: chain ends. Non-standard residues stand in square brackets, D forms with d. Residues, ends and D or L forms follow the SMILES beside them. X2 = CCCCCCC[C@H](CC(=O)[*:1])O[*:2]; Val(3-OH) = CC(C)(O)[C@H](N)C(=O)O; X1 = C/C=C(/N[*:1])C(=O)[*:2]; Dab = NCC[C@H](N)C(=O)O; Dap = NC[C@H](N)C(=O)O
# Tests used:
# [1] = system: A. baumannii; type: cell-based, Acinetobacter baumannii
# Excerpt: (§1) 2015. M7-A10. Methods for dilution antimicrobial susceptibility tests for bacteria that grow aerobically, 10th ed. Approved standard. CLSI, Wayne, Pa.).
# (§2) A) In the broth micro-dilution method, the test media were either AM3 Broth (BD Difco Ltd) mixed with phosphate buffered saline (PBS, Amresco LLC, Solon, USA) in 1:4 ratio (E. colt A. baumannii, Enterobacter cloacae, Klebsiella pneumonia and P. aeruginosa), AM3 Broth mixed with PBS in 1:1 ratio (S. aureus) or Malt Extract (ME; 15 g Malt Extract Dico Ltd. in 1000 mL deionized H2O; Aspergillus fumigatus). Prior to MIC-tests, the bacterial cell concentration/fungal spore concentration was adjusted to between 1 and 5×10^5 cells/spores per mL. […] Afterwards, suspensions of pathogen cells in the appropriate medium were dispensed to the wells of microtiter plates and the growth of pathogens were monitored after 16 to 20 h of incubation at 37° C. in the dark. Positive control comprised respective pathogen cells suspended in untreated sterile appropriate media without addition of compounds(s) and negative control comprised the medium only. The MIC was defined as the lowest concentration of each compound with no visible growth of pathogen. All MIC tests were performed in duplicate and/or triplicate and repeated at least twice.
# [2] = system: As. fumigatus; type: cell-based, Aspergillus fumigatus
# Excerpt: as §1, §2
# [3] = system: E. cloacae; type: cell-based, Enterobacter cloacae
# Excerpt: as §1, §2
# [4] = system: E. coli; type: cell-based, Escherichia coli
# Excerpt: as §1, §2
# [5] = system: K. pneumoniae; type: cell-based, Klebsiella pneumonia
# Excerpt: as §1, §2
# [6] = system: P. aeruginosa; type: cell-based, Pseudomonas aeruginosa
# Excerpt: as §1, §2
# [7] = system: S. aureus; type: cell-based, Staphylococcus aureus
# Excerpt: as §1, §2
# [8] = system: A. baumannii; type: cell-based, Acinetobacter baumannii; remark: listed apart in the source
# Excerpt: as §1
# [9] = system: E. coli; type: cell-based, Escherichia coli; details: E. coli EN003, D22 (lps mutant, hypersensitive), method B
# Excerpt: as §1
# [10] = system: K. pneumoniae; type: cell-based, Klebsiella pneumonia; details: K. pneumoniae EN011, 1161486a (efflux-defective), method B
# Excerpt: as §1
# [11] = system: P. aeruginosa; type: cell-based, Pseudomonas aeruginosa; details: P. aeruginosa EN005, PAO750 (efflux-defective), method B
# Excerpt: as §1
# [12] = system: S. aureus; type: cell-based, Staphylococcus aureus; remark: listed apart in the source
# Excerpt: as §1
# [13] = Experimental: (§3) IC50, haemolysis rate and frequency of resistance (FoR, Table 4) was determined using standard protocols by different CROs.
# [14] = system: HepG2
# Experimental: as §3
# [15] = system: carbapenem resistant strains of E. coil, P. aeruginosa and A. baumannii; type: cell-based
# Excerpt: as §1
compound,measurement,setting,value
"C/C=C1/NC(=O)[C@H](CCN)NC(=O)[C@H](CC(C)C)NC(=O)[C@H](CN)NC(=O)C[C@@H](CCCCCCC)OC(=O)[C@H](CC(=O)O)NC(=O)[C@H](C(C)(C)O)NC(=O)[C@@H](Cc2ccccc2)NC(=O)[C@H](CN)NC(=O)[C@H]([C@@H](C)O)NC1=O [U747, cyclo-((R)-3-hydroxydecanoyl-L-DAPA-L-Leu-L-DABA-(E)-ABA-L-Thr-L-DAPA-D-Phe-L-OHVal-L-Asp)] ([Dap]L[Dab][X1]T[Dap][dF][Val(3-OH)]D; linker N-C via X2)",MIC,[1],1 to 2 mg/L
same,MIC A. baumannii LMG1041T,[1],1 mg/L
same,MIC,[2],16 to 32 mg/L
same,MIC,[3],2 to 4 mg/L
same,MIC E. cloacae LMG2783T,[3],2 mg/L
same,MIC,[4],2 to 4 mg/L
same,MIC E. coli LMG15862,[4],2 mg/L
same,MIC,[5],2 to 4 mg/L
same,MIC K. pneumonia LMG20218,[5],2 mg/L
same,MIC,[6],8 to 16 mg/L
same,MIC P. aeruginosa LMG6395,[6],8 mg/L
same,MIC,[7],>32 mg/L
same,MIC S. aureus LMG15975,[7],>32 mg/L
same,MIC,[8],1 to 2 mg/L
same,MIC,"[8]; A. baumanii EN007, WT, method B",8 mg/L
same,MIC,"[8]; A. baumanii EN016, BM4454 8, method B",8 mg/L
same,MIC,"[8]; A. baumanii EN017, BM4652 (efflux-defective), method B",8 mg/L
same,MIC,[9],4 mg/L
same,MIC,[10],8 mg/L
same,MIC,[11],32 mg/L
same,MIC,[12],64 mg/L
same,Haemolysis rate,[13]; 100 μM,0.6%
same,haemolysis rates,[13]; in words,acceptable
same,IC50 (HepG2),[14],50 mg/L
same,toxicity (IC50) against human cell lines,[14],low toxicity
same,"MICs against carbapenem resistant strains, highest",[15],2 to 4 µg/mL
same,"MICs against carbapenem resistant strains, lowest",[15],0.5 to 1 µg/mL
